IC50 data for 25 compounds are collected here from patent US9266876B2 (Actelion Pharmaceuticals Ltd., priority 2012, dated 2016).

In one assay the target is CXCR3 (Homo sapiens (Human), UniProt P49682). Put plainly: Receptor internalization assay. In kind it is cell-based. As to conditions: human whole blood; final CXCL10 concentration 9 nM; 30 min 37° C.; CXCR3 cell surface expression on CD3 positive cells, flow cytometer; read-out: Internalization IC50. An outline of the steps: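 In human whole blood, compounds were incubated with CXCL10 (9 nM final) for 30 min at 37 °C to drive receptor internalization, then stained with anti-CXCR3/CD3 antibodies and lysed of red cells. Flow cytometry measured mean surface CXCR3 fluorescence on CD3+ cells, and IC50 came from single-site dose-response fits.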
Chain of CXCR3 (P49682 whole entry): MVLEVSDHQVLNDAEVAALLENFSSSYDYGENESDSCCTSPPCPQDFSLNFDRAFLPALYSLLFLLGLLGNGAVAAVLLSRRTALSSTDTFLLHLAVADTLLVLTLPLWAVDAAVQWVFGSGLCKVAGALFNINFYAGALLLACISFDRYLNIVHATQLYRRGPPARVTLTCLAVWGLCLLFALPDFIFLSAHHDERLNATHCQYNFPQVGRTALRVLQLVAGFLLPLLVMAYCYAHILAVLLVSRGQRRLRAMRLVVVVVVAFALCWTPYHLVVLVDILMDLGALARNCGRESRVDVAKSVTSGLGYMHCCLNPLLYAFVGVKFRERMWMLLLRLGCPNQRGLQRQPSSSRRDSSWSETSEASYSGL
(In flow cytometry, cells or beads pass a laser one at a time.)

The target of another assay is human CXCR3A (Homo sapiens (Human), UniProt P49682). Put plainly: FLIPR assay. It counts as cell-based. As to conditions: CHO-K1 cells expressing the human CXCR3A coupled to Galpha(16); CXCL10 agonist 20 nM; Fluo-4-AM fluorescence; mean values if determined several times. An outline of the steps: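 CHO-K1 cells expressing CXCR3A coupled to Gα16 were loaded with Fluo-4-AM for 1 h in Hepes-buffered HBSS, pH 7.4, with 5 mM probenecid. Compound dilutions were added on the FLIPR, followed by CXCL10 (added as a 20 nM solution). Baseline-subtracted peak fluorescence was fitted to a single-site curve for IC50.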
Chain of human CXCR3A (P49682 whole entry): as above

On to `C[C@@H]1CN(c2sc(Br)nc2-c2nc3ccccc3[nH]2)CCN1C(=O)Cn1cnc2cccnc21` [Example 80, 1-{(R)-4-[4-(1H-Benzoimidazol-2-yl)-2-bromo-thiazol-5-yl]-2-methyl-piperazin-1-yl}-2-imidazo[4,5-b]pyridin-3-yl-ethanone], for which the half-maximal inhibitory concentration (IC50) (usually the point on the concentration scale where inhibition reaches its midpoint) at CXCR3 is 459 nM; on human CXCR3A, 1 nM.

In the case of `C[C@@H]1CN(c2scnc2-c2nc3ccc(Cl)cc3[nH]2)CCN1C(=O)Cn1cnc2cccnc21` [Example 83, 1-{(R)-4-[4-(6-Chloro-1H-benzoimidazol-2-yl)-thiazol-5-yl]-2-methyl-piperazin-1-yl}-2-imidazo[4,5-b]pyridin-3-yl-ethanone], the IC50 worked out at 340 nM at CXCR3 and 1 nM on human CXCR3A.

In the case of `C[C@@H]1CN(c2scnc2-c2nc3cc(Cl)ccc3[nH]2)CCN1C(=O)Cn1c(=O)oc2ccccc21` [Example 84, 3-(2-{(R)-4-[4-(5-Chloro-1H-benzoimidazol-2-yl)-thiazol-5-yl]-2-methyl-piperazin-1-yl}-2-oxo-ethyl)-3H-benzooxazol-2-one], the half-maximal inhibitory concentration (IC50) on CXCR3 came out at 517 nM; on human CXCR3A it was 1 nM.

For `Cc1ccc2[nH]c(-c3ncsc3N3CCN(C(=O)Cn4cnc5cccnc54)[C@H](C)C3)nc2c1` [Example 85, 2-Imidazo[4,5-b]pyridin-3-yl-1-{(R)-2-methyl-4-[4-(5-methyl-1H-benzoimidazol-2-yl)-thiazol-5-yl]-piperazin-1-yl}-ethanone], the half-maximal inhibitory concentration (IC50) on CXCR3 was 499 nM; at human CXCR3A it was 1 nM.

Regarding `Cc1cc2[nH]c(-c3ncsc3N3CCN(C(=O)Cn4cnc5cccnc54)[C@H](C)C3)nc2cc1Cl` [Example 87, 1-{(R)-4-[4-(5-Chloro-6-methyl-1H-benzoimidazol-2-yl)-thiazol-5-yl]-2-methyl-piperazin-1-yl}-2-imidazo[4,5-b]pyridin-3-yl-ethanone], the figures for the IC50 at CXCR3 and on human CXCR3A were 205 nM and 1 nM, respectively.

On to `CC(C)c1ccc2nc(-c3ncsc3N3CCN(C(=O)Cn4cnc5cccnc54)[C@H](C)C3)[nH]c2c1` [Example 88, 2-Imidazo[4,5-b]pyridin-3-yl-1-{(R)-4-[4-(6-isopropyl-1H-benzoimidazol-2-yl)-thiazol-5-yl]-2-methyl-piperazin-1-yl}-ethanone], for which the IC50 at CXCR3 was determined as 126 nM; on human CXCR3A it was 1 nM.

With `C[C@@H]1CN(c2scnc2-c2nc3cc(F)c(F)cc3[nH]2)CCN1C(=O)Cn1cnc2cccnc21` [Example 91, 1-{(R)-4-[4-(5,6-Difluoro-1H-benzoimidazol-2-yl)-thiazol-5-yl]-2-methyl-piperazin-1-yl}-2-imidazo[4,5-b]pyridin-3-yl-ethanone], the IC50 on CXCR3 is 895 nM; on human CXCR3A, 0.4 nM.

As for `C[C@@H]1CN(c2scnc2-c2nc3cc(C(F)(F)F)ccc3[nH]2)CCN1C(=O)Cn1cnc2cccnc21` [Example 92, 2-Imidazo[4,5-b]pyridin-3-yl-1-{(R)-2-methyl-4-[4-(5-trifluoromethyl-1H-benzoimidazol-2-yl)-thiazol-5-yl]-piperazin-1-yl}-ethanone], the 50% inhibitory concentration (IC50) on CXCR3 stood at 317 nM; on human CXCR3A it was 1 nM.

As to `C[C@@H]1CN(c2scnc2-c2nc3cc(F)ccc3[nH]2)CCN1C(=O)Cn1cnc2cccnc21` [Example 96, 1-{(R)-4-[4-(5-Fluoro-1H-benzoimidazol-2-yl)-thiazol-5-yl]-2-methyl-piperazin-1-yl}-2-imidazo[4,5-b]pyridin-3-yl-ethanone], the results for the 50% inhibitory concentration (IC50) at CXCR3 and at human CXCR3A were 566 nM and 0.5 nM, respectively.

As for `CCc1ccc2nc(-c3ncsc3N3CCN(C(=O)Cn4cnc5cccnc54)[C@H](C)C3)[nH]c2c1` [Example 99, 1-{(R)-4-[4-(6-Ethyl-1H-benzoimidazol-2-yl)-thiazol-5-yl]-2-methyl-piperazin-1-yl}-2-imidazo[4,5-b]pyridin-3-yl-ethanone], the IC50 at CXCR3 turned out to be 221 nM; at human CXCR3A, 1 nM.

For `C[C@@H]1CN(c2scnc2-c2nc3ccc(-c4ccccc4)cc3[nH]2)CCN1C(=O)Cn1cnc2cccnc21` [Example 100, 2-Imidazo[4,5-b]pyridin-3-yl-1-{(R)-2-methyl-4-[4-(6-phenyl-1H-benzoimidazol-2-yl)-thiazol-5-yl]-piperazin-1-yl}-ethanone], the half-maximal inhibitory concentration (IC50) came out at 747 nM at CXCR3 and 1 nM at human CXCR3A.

As for `C[C@@H]1CN(c2sc(C(F)(F)F)nc2-c2nc3ccccc3[nH]2)CCN1C(=O)CN1C(=O)Cc2ccccc21` [Example 103, 1-(2-{(R)-4-[4-(1H-Benzoimidazol-2-yl)-2-trifluoromethyl-thiazol-5-yl]-2-methyl-piperazin-1-yl}-2-oxo-ethyl)-1,3-dihydro-indol-2-one], the half-maximal inhibitory concentration (IC50) on CXCR3 was found to be 81 nM; at human CXCR3A it was 1 nM.

Regarding `C[C@@H]1CN(c2sc(C(F)(F)F)nc2-c2nc3ccccc3[nH]2)CCN1C(=O)Cn1c(=O)[nH]c2cccnc21` [Example 104, 3-(2-{(R)-4-[4-(1H-Benzoimidazol-2-yl)-2-trifluoromethyl-thiazol-5-yl]-2-methyl-piperazin-1-yl}-2-oxo-ethyl)-1,3-dihydro-imidazo[4,5-b]pyridin-2-one], the figures for the IC50 at CXCR3 and at human CXCR3A were 119 nM and 1 nM, respectively.

For the compound `O=C(Cn1ncc2ccccc21)N1CCN(c2scnc2-c2nc3ccccc3[nH]2)CC1` [Example 109, 1-{4-[4-(1H-Benzoimidazol-2-yl)-thiazol-5-yl]-piperazin-1-yl}-2-indazol-1-yl-ethanone], the IC50 at CXCR3 stood at 1970 nM; on human CXCR3A, 16 nM.

On to `C[C@@H]1CN(c2sc(C3COC3)nc2-c2nc3ccccc3[nH]2)CCN1C(=O)Cn1cnc2cccnc21` [Example 113, 1-{(R)-4-[4-(1H-Benzoimidazol-2-yl)-2-oxetan-3-yl-thiazol-5-yl]-2-methyl-piperazin-1-yl}-2-imidazo[4,5-b]pyridin-3-yl-ethanone], for which the half-maximal inhibitory concentration (IC50) at CXCR3 was found to be 1510 nM; at human CXCR3A it was 9 nM.

For `C[C@@H]1CN(c2scnc2-c2nc3ccccc3[nH]2)CCN1C(=O)Cn1ncc2cccnc21` [Example 115, 1-{(R)-4-[4-(1H-Benzoimidazol-2-yl)-thiazol-5-yl]-2-methyl-piperazin-1-yl}-2-pyrazolo[3,4-b]pyridin-1-yl-ethanone], the figures for the concentration for half-maximal inhibition (IC50) on CXCR3 and on human CXCR3A were 809 nM and 1 nM, respectively.

Take `C[C@@H]1CN(c2scnc2-c2nc3ccccc3[nH]2)CCN1C(=O)Cn1cc2cccnc2n1` [Example 116, 1-{(R)-4-[4-(1H-Benzoimidazol-2-yl)-thiazol-5-yl]-2-methyl-piperazin-1-yl}-2-pyrazolo[3,4-b]pyridin-2-yl-ethanone]: the half-maximal inhibitory concentration (IC50) at CXCR3 was found to be 306 nM; at human CXCR3A, 3 nM.

With `C[C@@H]1CN(c2scnc2-c2nc3ccccc3[nH]2)CCN1C(=O)Cc1cccc2ccccc12` [Example 118, 1-{(R)-4-[4-(1H-Benzoimidazol-2-yl)-thiazol-5-yl]-2-methyl-piperazin-1-yl}-2-naphthalen-1-yl-ethanone], the concentration for half-maximal inhibition (IC50) came to 3780 nM on CXCR3 and 3 nM at human CXCR3A.

For the compound `C[C@@H]1CN(c2scnc2-c2nc3ccccc3[nH]2)CCN1C(=O)Cc1cccc2cccnc12` [Example 119, 1-{(R)-4-[4-(1H-Benzoimidazol-2-yl)-thiazol-5-yl]-2-methyl-piperazin-1-yl}-2-quinolin-8-yl-ethanone], the figures for the concentration for half-maximal inhibition (IC50) at CXCR3 and at human CXCR3A were 2450 nM and 2 nM, respectively.

Regarding `C[C@@H]1CN(c2scnc2-c2nc3ccccc3[nH]2)CCN1C(=O)Cc1noc2ccccc12` [Example 130, 2-Benzo[d]isoxazol-3-yl-1-{(R)-4-[4-(1H-benzoimidazol-2-yl)-thiazol-5-yl]-2-methyl-piperazin-1-yl}-ethanone], the figures for the half-inhibitory concentration (IC50) on CXCR3 and on human CXCR3A were 2670 nM and 3 nM, respectively.

Take `C[C@@H]1CN(c2scnc2-c2nc3ccccc3[nH]2)CCN1C(=O)Cc1n[nH]c2ccccc12` [Example 132, 1-{(R)-4-[4-(1H-Benzoimidazol-2-yl)-thiazol-5-yl]-2-methyl-piperazin-1-yl}-2-(1H-indazol-3-yl)-ethanone]: the IC50 on CXCR3 was determined as 6380 nM; at human CXCR3A it was 3 nM.

As to `C[C@@H]1CN(c2scnc2-c2nc3ccccc3[nH]2)CCN1C(=O)Cn1cnc2ccncc21` [Example 137, 1-{(R)-4-[4-(1H-Benzoimidazol-2-yl)-thiazol-5-yl]-2-methyl-piperazin-1-yl}-2-imidazo[4,5-c]pyridin-3-yl-ethanone], the half-maximal inhibitory concentration (IC50) on CXCR3 came to 1140 nM; on human CXCR3A it was 5 nM.

Regarding `C[C@@H]1CN(c2scnc2-c2nc3ccccc3[nH]2)CCN1C(=O)Cn1cnc2cnccc21` [Example 138, 1-{(R)-4-[4-(1H-Benzoimidazol-2-yl)-thiazol-5-yl]-2-methyl-piperazin-1-yl}-2-imidazo[4,5-c]pyridin-1-yl-ethanone], the IC50 at CXCR3 worked out at 1090 nM; on human CXCR3A, 4 nM.

For the compound `C[C@@H]1CN(c2scnc2-c2nc3ccccc3[nH]2)CCN1C(=O)CN1CCc2cccnc21` [Example 139, 1-{(R)-4-[4-(1H-Benzoimidazol-2-yl)-thiazol-5-yl]-2-methyl-piperazin-1-yl}-2-(2,3-dihydro-pyrrolo[2,3-b]pyridin-1-yl)-ethanone], the IC50 was 2930 nM on CXCR3 and 2 nM at human CXCR3A.

As to `C[C@@H]1CN(c2scnc2-c2nc3ccccc3[nH]2)CCN1C(=O)Cn1ccc2ccncc21` [Example 141, 1-{(R)-4-[4-(1H-Benzoimidazol-2-yl)-thiazol-5-yl]-2-methyl-piperazin-1-yl}-2-pyrrolo[2,3-c]pyridin-1-yl-ethanone], the values for the half-maximal inhibitory concentration (IC50) on CXCR3 and at human CXCR3A were 363 nM and 0.2 nM, respectively.
